Source: patent publication US11572384B2, “Unusual substrates of tubulin tyrosine ligase” (FORSCHUNGSVERBUND BERLIN E.V., priority 2016, dated 2023)

Target: T1, TTL (Canis lupus familiaris, UniProt A0A8I3N5B1)
T1 construct: His-Tag (N, cleaved yes); Sumo (N, cleaved yes); made in house; host or cells: E. coli BL21 (DE3)
T1 sequence (A0A8I3N5B1 1-377): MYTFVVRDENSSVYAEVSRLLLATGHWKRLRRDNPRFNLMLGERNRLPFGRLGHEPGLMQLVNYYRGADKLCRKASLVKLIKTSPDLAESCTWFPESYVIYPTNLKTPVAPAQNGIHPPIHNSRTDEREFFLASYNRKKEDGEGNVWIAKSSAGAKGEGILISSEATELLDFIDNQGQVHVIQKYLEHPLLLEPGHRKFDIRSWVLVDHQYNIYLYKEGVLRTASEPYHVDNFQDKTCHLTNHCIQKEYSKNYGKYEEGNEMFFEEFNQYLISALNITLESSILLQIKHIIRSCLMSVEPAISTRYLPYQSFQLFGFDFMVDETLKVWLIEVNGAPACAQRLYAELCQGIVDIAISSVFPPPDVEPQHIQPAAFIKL
Assay: TTL mediated labelling of Tub-tagged proteins with coumarin derivative 7 (SDS-PAGE, in-gel fluorescence)
Assay type: biochemical
Details: 1 μM TTL, 37°, 1-6 h
Protocol: TTL (Canis lupus) having NCBI Accession number XP_540180.2 was expressed in E. coli (BL21 DE3) as Sumo-TTL fusion protein with an N-terminal His-Tag. Cells were induced with 0.5 mM IPTG and incubated at 18° C. for 18 h. Lysis was performed in presence of Lysozyme (100 μg/ml), DNAse (25 μg/ml) and PMSF (2 mM) followed by sonification (Branson® Sonifier; 16×8sec, 20% Amplitude) and debris centrifugation at 20.000 g for 30 min. His-Sumo-TTL was purified using a 5 ml His-Trap. For removal of the Sumo-Tag, peak fractions were incubated with SenP2 protease at 4° C. overnight. A second His-Trap run then removed the Sumo fraction. Purified protein was then desalted on a PD10 column (GE Healthcare); buffer was exchanged to MES/K pH 6.8 (20 mM MES, 100 mM KCl, 10 mM MgCl2). Protein aliquots were shock-frozen and stored at −80° C. at 0.8 g/l. Functionalization reactions were performed in a 150 μL solution consisting of 20 mM MES/K pH 7.0, 100 mM KCl, 10 mM MgCl2, 2.5 mM ATP, 1 mM (7), 1 μM TTL, 5 μM ubiquitin and 5 mM DTT. The mixture was incubated at 37° for 1-6 h. Proteins were separated and analysed by SDS-PAGE and a ChemiDoc™ XRS+gel imaging system (Bio-Rad, Hercules, Calif., US). Functionalization reactions were performed in a 150 μL solution consisting of 20 mM MES/K pH 7.0, 100 mM KCl, 10 mM MgCl2, 2.5 mM ATP, 1 mM (7), 1 μM TTL, 5 μM nanobody and 5 mM DTT. The mixture was incubated at 37° for 1-6 h. Proteins were separated and analysed by SDS-PAGE and a ChemiDoc™ XRS+gel imaging system (Bio-Rad, Hercules, Calif., US). Functionalization reactions were performed in a 150 μL solution consisting of 20 mM MES/K pH 7.0, 100 mM KCl, 10 mM MgCl2, 2.5 mM ATP, 1 mM (24), 1 μM TTL, 5 μM nanobody and 5 mM DTT. The mixture was incubated at 37° for 1-6 h. Proteins were separated and analysed by SDS-PAGE and a ChemiDoc™ XRS+gel imaging system (Bio-Rad, Hercules, Calif., US).

- TTL mediated functionalization of Tub-tagged Annexin V (SDS-PAGE and in-gel fluorescence (FIG. 10)): successfully functionalized
- TTL mediated functionalization of Tub-tagged GBP nanobody (1 mM (7), 5 μM nanobody, SDS-PAGE and in-gel fluorescence (FIG. 9)): successfully functionalized
- TTL mediated functionalization of Tub-tagged ubiquitin (1 mM (7), 5 μM ubiquitin, SDS-PAGE and in-gel fluorescence (FIG. 8)): successfully functionalized
Structure (SMILES): N[C@@H](Cc1cc(=O)oc2cc(O)ccc12)C(=O)O.O=C(O)C(F)(F)F [compound 7, (1S)-1-Carboxy-2-(7-hydroxy-2-oxo-2H-chromen-4-yl)ethyl ammonium trifluoroacetate]
